For one test, the target named is T1, TEK(R849W) (Homo sapiens, UniProt Q02763, R849W).
T1 construct: purchased EMD Millipore Corp. (KinaseProfiler service)
As to the kind of experiment: KinaseProfiler kinase activity assay. The class given is biochemical. Particulars: ATP at Km. From the text:
(§1) A summary is provided below.

The target of another test is T2, TEK(Y897S) (Homo sapiens, UniProt Q02763, Y897S).
T2 construct: purchased EMD Millipore Corp. (KinaseProfiler service)
Kind of test: KinaseProfiler kinase activity assay. Type of test: biochemical. Conditions: ATP at Km.
Description: as §1

Test [1] has as its target T3, Abl(M351T) (Homo sapiens, UniProt P00519, M351T). Kind of test: KinomeScan competition binding assay. The arrangement: purchased DiscoveRx Corporation (KinomeScan service). From the text:
(§2) Detailed assay methodologies can be found in the relevant references cited herein, or in the KinaseProfiler Service Assay Protocols (v54, 2011) available from EMD Millipore (www.emdmillipore.com), or from the KinomeScan website (www.kinomescan.com), as appropriate. (For a more detailed description of KINOMEscan's assay technology, see: Fabian et al. A small molecule-kinase interaction map for clinical kinase inhibitors. Nat. Biotechnol. 23, 329-336 (2005)). A summary is provided below.
(§3) KinomeScan™ assays (DiscoveRx Corporation, San Diego, Calif., USA) are active-site-directed competition binding assays. […] The amount of kinase captured in test versus control samples is determined by using a qPCR method that detects the associated DNA label on each kinase molecule. Dissociation constants (Kd) for test compound-kinase interactions are calculated by measuring the amount of kinase captured on the solid support as a function of the test compound concentration.

For the next test, the target named is Flt3 (D835Y) (Homo sapiens, UniProt P36888, D835Y). Kind of test: KinomeScan competition binding assay. The arrangement: purchased DiscoveRx Corporation (KinomeScan service).
Description: as §2, §3

A further test concerns the target Ret (V804L) (Homo sapiens, UniProt P07949, V804L). Kind of test: KinomeScan competition binding assay. The arrangement: purchased DiscoveRx Corporation (KinomeScan service).
Description: as §2, §3

A further test addresses Ret (V804M) (Homo sapiens, UniProt P07949, V804M). Kind of test: KinomeScan competition binding assay. Further details: purchased DiscoveRx Corporation (KinomeScan service).
Description: as §2, §3

The next test has as its target Stk10 (Homo sapiens, UniProt O94804). As to the kind of experiment: KinomeScan competition binding assay. Further details: purchased DiscoveRx Corporation (KinomeScan service).
Description: as §2, §3

The target of another test is TEK (Homo sapiens, UniProt Q02763). As to the kind of experiment: KinomeScan competition binding assay. Further details: purchased DiscoveRx Corporation (KinomeScan service).
Description: as §2, §3

Test [2] addresses T4, Tyro3 (Homo sapiens, UniProt Q06418). Kind of test: KinomeScan competition binding assay. The arrangement: purchased DiscoveRx Corporation (KinomeScan service).
Description: as §2, §3

In a further test the target is c-Kit (D816H) (Homo sapiens, UniProt P10721, D816H). As to the kind of experiment: KinomeScan competition binding assay. The arrangement: purchased DiscoveRx Corporation (KinomeScan service).
Description: as §2, §3

The target of the next test is Abl (T315I) (Homo sapiens, UniProt P00519, T315I). As to the kind of experiment: KinaseProfiler kinase activity assay. The class given is biochemical. The arrangement: purchased EMD Millipore Corp. (KinaseProfiler service). Conditions: ATP at Km.
Description: as §2
(§4) KinaseProfiler™ assays (EMD Millipore Corp. Billerica, Mass., USA) are […] with purified or partially-purified human kinases. Most of the KinaseProfiler™ assays are conducted in 20 mM MOPS, 1 mM EDTA, 0.01% Brij-35, 5% Glycerol, 0.1% b-mercaptoethanol, 1 mg/mL BSA. The assay involves the transfer of ^32P from γ-^32P-ATP to the target peptide, followed by washing and trapping of the labeled peptide on a filter. The concentration of γ-^32P-ATP used was at the established Km for ATP.

Another test concerns the target Abl(H396P) (Homo sapiens, UniProt P00519, H396P). Kind of test: KinaseProfiler kinase activity assay. The class given is biochemical. Particulars: ATP at Km. The arrangement: purchased EMD Millipore Corp. (KinaseProfiler service).
Description: as §2, §4

Test [3] concerns the target T3, Abl(M351T). Kind of test: KinaseProfiler kinase activity assay. The class given is biochemical. Further details: purchased EMD Millipore Corp. (KinaseProfiler service). Particulars: ATP at Km.
Description: as §2, §4

For the next test, the target named is Abl(Q252H) (Homo sapiens, UniProt P00519, Q252H). Kind of test: KinaseProfiler kinase activity assay. Further details: purchased EMD Millipore Corp. (KinaseProfiler service). The class given is biochemical. Particulars: ATP at Km.
Description: as §2, §4

A further test concerns the target Abl(Y253F) (Homo sapiens, UniProt P00519, Y253F). As to the kind of experiment: KinaseProfiler kinase activity assay. Further details: purchased EMD Millipore Corp. (KinaseProfiler service). Type of test: biochemical. Particulars: ATP at Km.
Description: as §2, §4

The target in test [4] is T4, Tyro3. Kind of test: KinaseProfiler kinase activity assay. Further details: purchased EMD Millipore Corp. (KinaseProfiler service). Conditions: ATP at Km. The class given is biochemical.
Description: as §2, §4

Some results are limits rather than exact numbers.

T4 sequence (Q06418 41-890): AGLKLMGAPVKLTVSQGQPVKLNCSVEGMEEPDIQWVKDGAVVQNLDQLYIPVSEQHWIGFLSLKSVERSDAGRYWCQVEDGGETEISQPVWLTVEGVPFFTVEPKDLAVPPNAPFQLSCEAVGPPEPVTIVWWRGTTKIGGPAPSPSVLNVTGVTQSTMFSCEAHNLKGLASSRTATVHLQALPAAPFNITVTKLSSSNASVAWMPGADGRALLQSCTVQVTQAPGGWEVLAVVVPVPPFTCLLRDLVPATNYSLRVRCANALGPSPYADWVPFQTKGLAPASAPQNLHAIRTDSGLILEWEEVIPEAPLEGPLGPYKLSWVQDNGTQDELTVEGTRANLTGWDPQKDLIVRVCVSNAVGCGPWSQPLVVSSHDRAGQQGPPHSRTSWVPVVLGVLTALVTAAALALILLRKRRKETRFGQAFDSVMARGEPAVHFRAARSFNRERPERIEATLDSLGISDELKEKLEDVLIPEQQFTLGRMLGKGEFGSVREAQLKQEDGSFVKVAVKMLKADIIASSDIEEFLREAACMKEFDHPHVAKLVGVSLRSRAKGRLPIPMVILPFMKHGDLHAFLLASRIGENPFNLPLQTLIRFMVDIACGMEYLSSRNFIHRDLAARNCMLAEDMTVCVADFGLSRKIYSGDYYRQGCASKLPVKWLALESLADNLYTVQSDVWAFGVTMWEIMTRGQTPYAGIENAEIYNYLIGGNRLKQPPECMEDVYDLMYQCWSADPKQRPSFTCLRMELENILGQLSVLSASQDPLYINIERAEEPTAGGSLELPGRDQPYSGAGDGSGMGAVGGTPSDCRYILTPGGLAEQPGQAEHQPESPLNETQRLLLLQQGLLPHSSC
Ret (V804M), sequence (P07949 29-1114 V804M): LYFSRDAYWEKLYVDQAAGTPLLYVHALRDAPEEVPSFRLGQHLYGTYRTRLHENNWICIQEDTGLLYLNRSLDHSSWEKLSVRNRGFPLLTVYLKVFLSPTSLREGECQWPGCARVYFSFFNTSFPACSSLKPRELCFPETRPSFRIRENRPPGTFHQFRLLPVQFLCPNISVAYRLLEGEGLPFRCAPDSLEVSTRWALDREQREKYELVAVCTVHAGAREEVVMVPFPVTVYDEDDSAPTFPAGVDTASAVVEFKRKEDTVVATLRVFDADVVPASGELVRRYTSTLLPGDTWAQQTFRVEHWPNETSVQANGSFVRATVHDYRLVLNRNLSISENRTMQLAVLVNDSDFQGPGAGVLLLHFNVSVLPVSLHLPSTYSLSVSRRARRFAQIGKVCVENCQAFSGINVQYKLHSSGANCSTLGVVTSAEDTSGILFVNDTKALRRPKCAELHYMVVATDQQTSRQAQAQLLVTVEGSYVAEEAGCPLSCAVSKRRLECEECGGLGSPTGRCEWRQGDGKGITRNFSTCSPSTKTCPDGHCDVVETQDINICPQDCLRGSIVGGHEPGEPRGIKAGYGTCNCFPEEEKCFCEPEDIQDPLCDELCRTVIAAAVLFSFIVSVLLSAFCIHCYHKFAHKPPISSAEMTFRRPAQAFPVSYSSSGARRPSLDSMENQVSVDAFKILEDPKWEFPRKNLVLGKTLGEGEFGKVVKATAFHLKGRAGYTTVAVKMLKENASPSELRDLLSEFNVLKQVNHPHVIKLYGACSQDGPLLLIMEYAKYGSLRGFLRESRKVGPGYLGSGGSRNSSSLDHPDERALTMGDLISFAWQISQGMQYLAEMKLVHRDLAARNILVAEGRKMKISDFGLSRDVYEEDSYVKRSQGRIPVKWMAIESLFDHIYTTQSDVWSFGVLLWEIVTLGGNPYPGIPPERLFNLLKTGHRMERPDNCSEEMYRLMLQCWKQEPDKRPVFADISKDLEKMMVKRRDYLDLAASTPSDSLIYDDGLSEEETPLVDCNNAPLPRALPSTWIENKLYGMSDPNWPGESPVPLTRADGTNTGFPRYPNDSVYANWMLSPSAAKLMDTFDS
T1 sequence (Q02763 23-1124 R849W): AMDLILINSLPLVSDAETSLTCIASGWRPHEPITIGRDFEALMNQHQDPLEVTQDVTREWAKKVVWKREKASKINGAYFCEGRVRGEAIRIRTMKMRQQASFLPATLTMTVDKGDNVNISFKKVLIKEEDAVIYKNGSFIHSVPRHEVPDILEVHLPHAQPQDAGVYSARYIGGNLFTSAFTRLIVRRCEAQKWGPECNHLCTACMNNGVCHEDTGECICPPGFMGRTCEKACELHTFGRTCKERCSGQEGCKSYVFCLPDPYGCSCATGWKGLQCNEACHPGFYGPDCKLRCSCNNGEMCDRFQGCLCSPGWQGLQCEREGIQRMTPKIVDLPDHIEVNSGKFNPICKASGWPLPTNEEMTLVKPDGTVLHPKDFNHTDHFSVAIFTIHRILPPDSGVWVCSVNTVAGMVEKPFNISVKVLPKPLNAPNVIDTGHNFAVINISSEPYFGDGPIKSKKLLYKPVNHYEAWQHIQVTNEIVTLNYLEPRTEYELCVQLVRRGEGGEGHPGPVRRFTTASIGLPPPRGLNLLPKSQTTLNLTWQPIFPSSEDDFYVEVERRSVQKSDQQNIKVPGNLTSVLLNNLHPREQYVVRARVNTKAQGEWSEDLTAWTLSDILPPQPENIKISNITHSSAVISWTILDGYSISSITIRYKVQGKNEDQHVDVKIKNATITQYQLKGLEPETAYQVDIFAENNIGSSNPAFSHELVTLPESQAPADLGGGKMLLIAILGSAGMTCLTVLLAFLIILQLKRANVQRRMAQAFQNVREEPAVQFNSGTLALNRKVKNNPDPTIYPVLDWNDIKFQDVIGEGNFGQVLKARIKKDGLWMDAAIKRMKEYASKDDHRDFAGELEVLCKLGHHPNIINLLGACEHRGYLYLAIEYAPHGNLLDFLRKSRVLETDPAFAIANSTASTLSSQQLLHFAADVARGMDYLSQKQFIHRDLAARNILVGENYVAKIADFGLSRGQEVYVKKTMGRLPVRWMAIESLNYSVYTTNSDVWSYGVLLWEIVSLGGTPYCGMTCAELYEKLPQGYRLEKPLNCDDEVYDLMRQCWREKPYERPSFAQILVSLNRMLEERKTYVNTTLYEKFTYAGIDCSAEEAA
T2 sequence (Q02763 23-1124 Y897S): as the sequence (Q02763 23-1124 R849W) above, with W827R, Y875S counted along it
TEK, sequence (Q02763 23-1124): as the sequence (Q02763 23-1124 R849W) above, with W827R counted along it
c-Kit (D816H), sequence (P10721 26-976 D816H): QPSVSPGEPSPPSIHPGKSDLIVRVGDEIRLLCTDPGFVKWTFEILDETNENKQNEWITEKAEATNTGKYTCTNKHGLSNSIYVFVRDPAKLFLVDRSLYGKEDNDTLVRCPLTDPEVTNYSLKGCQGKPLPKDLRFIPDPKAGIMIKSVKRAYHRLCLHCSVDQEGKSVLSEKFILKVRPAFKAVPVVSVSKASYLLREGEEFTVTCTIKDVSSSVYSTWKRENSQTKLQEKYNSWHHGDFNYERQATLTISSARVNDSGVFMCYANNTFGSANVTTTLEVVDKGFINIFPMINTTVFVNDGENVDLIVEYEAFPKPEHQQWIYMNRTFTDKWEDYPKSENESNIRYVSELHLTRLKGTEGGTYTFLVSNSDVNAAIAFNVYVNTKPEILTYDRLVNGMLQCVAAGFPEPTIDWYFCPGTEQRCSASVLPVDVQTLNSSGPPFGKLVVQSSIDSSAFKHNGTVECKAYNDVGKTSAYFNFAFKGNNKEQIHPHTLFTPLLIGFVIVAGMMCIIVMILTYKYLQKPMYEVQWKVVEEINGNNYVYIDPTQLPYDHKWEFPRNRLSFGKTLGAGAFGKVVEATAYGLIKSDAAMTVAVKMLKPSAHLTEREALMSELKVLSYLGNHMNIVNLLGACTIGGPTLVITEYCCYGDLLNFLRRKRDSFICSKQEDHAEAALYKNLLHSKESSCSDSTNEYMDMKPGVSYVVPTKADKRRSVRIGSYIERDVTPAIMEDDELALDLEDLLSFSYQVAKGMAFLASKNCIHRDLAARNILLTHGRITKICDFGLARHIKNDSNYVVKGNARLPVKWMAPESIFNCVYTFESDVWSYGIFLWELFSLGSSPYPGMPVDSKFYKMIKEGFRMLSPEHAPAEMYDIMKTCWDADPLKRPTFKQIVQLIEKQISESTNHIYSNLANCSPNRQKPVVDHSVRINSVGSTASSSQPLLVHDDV
Ret (V804L), sequence (P07949 29-1114 V804L): as the sequence (P07949 29-1114 V804M) above, with M776L counted along it
Stk10, sequence (O94804 whole entry): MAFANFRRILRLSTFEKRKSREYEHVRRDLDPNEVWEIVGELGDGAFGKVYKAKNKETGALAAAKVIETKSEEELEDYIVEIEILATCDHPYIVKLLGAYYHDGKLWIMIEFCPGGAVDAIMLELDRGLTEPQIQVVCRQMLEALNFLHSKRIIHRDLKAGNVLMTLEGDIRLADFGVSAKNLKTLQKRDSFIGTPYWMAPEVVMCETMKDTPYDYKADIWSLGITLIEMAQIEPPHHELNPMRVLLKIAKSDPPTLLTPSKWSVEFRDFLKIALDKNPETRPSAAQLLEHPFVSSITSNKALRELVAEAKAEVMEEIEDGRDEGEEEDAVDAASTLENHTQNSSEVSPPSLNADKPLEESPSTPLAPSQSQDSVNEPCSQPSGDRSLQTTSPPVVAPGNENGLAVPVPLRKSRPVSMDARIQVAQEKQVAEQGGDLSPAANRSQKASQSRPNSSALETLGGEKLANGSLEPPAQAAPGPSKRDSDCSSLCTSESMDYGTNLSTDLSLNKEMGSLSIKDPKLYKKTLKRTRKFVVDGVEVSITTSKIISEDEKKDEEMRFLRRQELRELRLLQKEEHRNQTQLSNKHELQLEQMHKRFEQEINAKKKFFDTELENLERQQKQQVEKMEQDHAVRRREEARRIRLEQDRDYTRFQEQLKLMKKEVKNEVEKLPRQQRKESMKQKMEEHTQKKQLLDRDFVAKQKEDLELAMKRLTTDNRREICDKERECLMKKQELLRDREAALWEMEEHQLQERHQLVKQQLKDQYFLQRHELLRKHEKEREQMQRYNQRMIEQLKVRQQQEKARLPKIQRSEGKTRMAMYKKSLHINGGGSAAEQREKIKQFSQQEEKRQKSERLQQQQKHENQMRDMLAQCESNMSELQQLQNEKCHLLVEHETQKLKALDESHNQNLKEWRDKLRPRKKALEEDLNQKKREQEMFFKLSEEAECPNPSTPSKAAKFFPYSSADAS

For the compound `Nc1nc(Nc2ccc3c(c2)CC[C@@H](N2CCCC2)CC3)nn1-c1cc2c(nn1)-c1ccccc1CCC2` [Compound A, 1-(6,7-dihydro-5H-benzo[6,7]cyclohepta[1,2-c]pyridazine-3-yl)-N^3-(7-(S)-(pyrrolidin-1-yl)-6,7,8,9-tetrahydro-5H-benzo[7]annulene-2-yl)-1H-1,2,4-triazole-3,5-diamine], the IC50 amounted to 22 nM against TEK(R849W); 13 nM on TEK(Y897S); 4 nM against Abl (T315I); 22 nM against Abl(H396P); 32 nM at Abl(M351T) [3]; 16 nM against Abl(Q252H). In addition, the half-inhibitory concentration (IC50) amounted to 26 nM against Abl(Y253F) and 413 nM against Tyro3 [4]. The dissociation constant Kd on Abl(M351T) [1] is 104 nM; on Flt3 (D835Y), 11.2 nM; on Ret (V804L), 90 nM; on Ret (V804M) it was 72 nM; on Stk10 it was 9.2 nM; on TEK, 270 nM. For the same compound, the results for the dissociation constant Kd at Tyro3 [2] and at c-Kit (D816H) were greater than 1000 nM and 63 nM, respectively.

In general, IC50 refers to the concentration that inhibits the measured activity by half. A lower IC50 goes with inhibition by little substance. The Kd is the equilibrium constant for the complex coming apart.
